# Laboratory results published in patent publication US10351546B2, “Pyridin-3-yl acetic acid derivatives as inhibitors of human immunodeficiency virus replication” (priority 2015, dated 2019).
# pEC50: −log10 of the molar value. Like-named read-outs stand apart in the source and are kept apart here.
# System: NL-RLuc virus
# Test: Inhibition of HIV replication (NL-RLuc luciferase reporter virus in MT-2 cells)
# Type: cell-based
# Conditions: Human immunodeficiency virus 1, MT2, 120 h; for pEC50: read-out: Activity; for EC50: read-out: EC50 μM
# Method in brief: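 MT-2 cells were infected with NL4-3-derived virus carrying Renilla luciferase in place of part of nef, in RPMI/10% FBS, with serial compound dilutions. Luciferase read after 5 days of multicycle replication. EC50 from the median effect equation, at least 2 experiments.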
SMILES,pEC50,EC50 [µM]
"Cc1nc(CO)c(-c2ccc3c(c2)CCN(c2ncnc4c2oc2ccccc24)C3)c(N2CCC(C)(C)CC2)c1[C@H](OC(C)(C)C)C(=O)O [Example 168, (S)-2-(5-(2-(Benzofuro[3,2-d]pyrimidin-4-yl)-1,2,3,4-tetrahydroisoquinolin-6-yl)-4-(4,4-dimethylpiperidin-1-yl)-6-(hydroxymethyl)-2-methylpyridin-3-yl)-2-(tert-butoxy)acetic acid]",> 7.00,0.001
"Cc1cccc(Cl)c1CN1CCc2cc(-c3c(CN4CCC(C)(C)CC4)nc(C)c([C@H](OC(C)(C)C)C(=O)O)c3N3CCC(C)(C)CC3)ccc2C1 [Example 179, (S)-2-(tert-Butoxy)-2-(5-(2-(2-chloro-6-methylbenzyl)-1,2,3,4-tetrahydroisoquinolin-6-yl)-4-(4,4-dimethylpiperidin-1-yl)-6-((4,4-dimethylpiperidin-1-yl)methyl)-2-methylpyridin-3-yl)acetic acid]",> 7.00,0.005
"Cc1nc(COCN2CCCC2=O)c(-c2ccc(OCCc3ccc(F)cc3)cc2)c(N2CCC(C)(C)CC2)c1[C@H](OC(C)(C)C)C(=O)O [Example 26, (S)-2-(tert-Butoxy)-2-(4-(4,4-dimethylpiperidin-1-yl)-5-(4-(4-fluorophenethoxy)phenyl)-2-methyl-6-(((2-oxopyrrolidin-1-yl)methoxy)methyl)pyridin-3-yl)acetic acid]",> 7.00,–
"Cc1nc(CN2CCCc3ccccc32)c(-c2ccc(OCCc3ccc(F)cc3)cc2)c(N2CCC(C)(C)CC2)c1[C@H](OC(C)(C)C)C(=O)O [Example 89, (S)-2-(tert-Butoxy)-2-(6-((3,4-dihydroquinolin-1(2H)-yl)methyl)-4-(4,4-dimethylpiperidin-1-yl)-5-(4-(4-fluorophenethoxy)phenyl)-2-methylpyridin-3-yl)acetic acid]",> 7.00,–
"Cc1ncn(Cc2nc(C)c([C@H](OC(C)(C)C)C(=O)O)c(N3CCC(C)(C)CC3)c2-c2ccc3c(c2)CCN(Cc2ccc(F)cc2C)C3)n1 [Example 144, (S)-2-(tert-Butoxy)-2-(4-(4,4-dimethylpiperidin-1-yl)-5-(2-(4-fluoro-2-methylbenzyl)-1,2,3,4-tetrahydroisoquinolin-6-yl)-2-methyl-6-((3-methyl-1H-1,2,4-triazol-1-yl)methyl)pyridin-3-yl)acetic acid]",> 7.00,0.025
"CCOCc1nc(C)c([C@H](OC(C)(C)C)C(=O)O)c(N2CCC(C)(C)CC2)c1-c1ccc2c(c1)CCN(Cc1ccc(F)cc1C)C2 [Example 156, (S)-2-(tert-Butoxy)-2-(4-(4,4-dimethylpiperidin-1-yl)-6-(ethoxymethyl)-5-(2-(4-fluoro-2-methylbenzyl)-1,2,3,4-tetrahydroisoquinolin-6-yl)-2-methylpyridin-3-yl)acetic acid]",> 7.00,–
"Cc1nc(CNC2COC2)c(-c2ccc(OCCc3ccc(F)cc3)cc2)c(N2CCC(C)(C)CC2)c1[C@H](OC(C)(C)C)C(=O)O [Example 77, (S)-2-(tert-Butoxy)-2-(4-(4,4-dimethylpiperidin-1-yl)-5-(4-(4-fluorophenethoxy)phenyl)-2-methyl-6-((oxetan-3-ylamino)methyl)pyridin-3-yl)acetic acid]",> 7.00,0.067
"Cc1nc(CN2CCSCC2)c(-c2ccc(OCCc3ccc(F)cc3)cc2)c(N2CCC(C)(C)CC2)c1[C@H](OC(C)(C)C)C(=O)O [Example 79, (S)-2-(tert-Butoxy)-2-(4-(4,4-dimethylpiperidin-1-yl)-5-(4-(4-fluorophenethoxy)phenyl)-2-methyl-6-(thiomorpholinomethyl)pyridin-3-yl)acetic acid]",> 7.00,–
"Cc1cccc(Cl)c1CN1CCc2cc(-c3c(CN4CCC4)nc(C)c([C@H](OC(C)(C)C)C(=O)O)c3N3CCC(C)(C)CC3)ccc2C1 [Example 175, (S)-2-(6-(Azetidin-1-ylmethyl)-5-(2-(2-chloro-6-methylbenzyl)-1,2,3,4-tetrahydroisoquinolin-6-yl)-4-(4,4-dimethylpiperidin-1-yl)-2-methylpyridin-3-yl)-2-(tert-butoxy)acetic acid]",> 7.00,–
"Cc1nc(CN2CCCC2)c(-c2ccc(OCCc3ccc(F)cc3)cc2)c(N2CCC(C)(C)CC2)c1[C@H](OC(C)(C)C)C(=O)O [Example 75, (S)-2-(tert-Butoxy)-2-(4-(4,4-dimethylpiperidin-1-yl)-5-(4-(4-fluorophenethoxy)phenyl)-2-methyl-6-(pyrrolidin-1-ylmethyl)pyridin-3-yl)acetic acid]",> 7.00,–
"Cc1nc(COCCN2CCCCC2)c(-c2ccc(OCCc3ccc(F)cc3)cc2)c(N2CCC(C)(C)CC2)c1[C@H](OC(C)(C)C)C(=O)O [Example 27, (S)-2-(tert-Butoxy)-2-(4-(4,4-dimethylpiperidin-1-yl)-5-(4-(4-fluorophenethoxy)phenyl)-2-methyl-6-((2-(piperidin-1-yl)ethoxy)methyl)pyridin-3-yl)acetic acid]",> 7.00,–
"CCCCN(C)C(=O)c1nc(C)c([C@H](OC(C)(C)C)C(=O)O)c(N2CCC(C)(C)CC2)c1-c1ccc(OCCc2ccc(F)cc2)cc1 [Example 43, (S)-2-(tert-Butoxy)-2-(6-(butyl(methyl)carbamoyl)-4-(4,4-dimethylpiperidin-1-yl)-5-(4-(4-fluorophenethoxy)phenyl)-2-methylpyridin-3-yl)acetic acid]",> 7.00,–
"Cc1nnc(C(=O)NCc2nc(C)c([C@H](OC(C)(C)C)C(=O)O)c(N3CCC(C)(C)CC3)c2-c2ccc(OCCc3ccc(F)cc3)cc2)o1 [Example 104, (S)-2-(tert-Butoxy)-2-(4-(4,4-dimethylpiperidin-1-yl)-5-(4-(4-fluorophenethoxy)phenyl)-2-methyl-6-((5-methyl-1,3,4-oxadiazole-2-carboxamido)methyl)pyridin-3-yl)acetic acid]",> 7.00,–
"Cc1nc(C(=O)N(C)CC2CCOCC2)c(-c2ccc(OCCc3ccc(F)cc3)cc2)c(N2CCC(C)(C)CC2)c1[C@H](OC(C)(C)C)C(=O)O [Example 41, (S)-2-(tert-Butoxy)-2-(4-(4,4-dimethylpiperidin-1-yl)-5-(4-(4-fluorophenethoxy)phenyl)-2-methyl-6-(methyl((tetrahydro-2H-pyran-4-yl)methyl)carbamoyl)pyridin-3-yl)acetic acid]",> 7.00,–
"Cc1nc(CN2CCC2)c(-c2ccc(OCCc3ccc(F)cc3)cc2)c(N2CCC(C)(C)CC2)c1[C@H](OC(C)(C)C)C(=O)O [Example 81, (S)-2-(6-(Azetidin-1-ylmethyl)-4-(4,4-dimethylpiperidin-1-yl)-5-(4-(4-fluorophenethoxy)phenyl)-2-methylpyridin-3-yl)-2-(tert-butoxy)acetic acid]",> 7.00,–
"CC[N+](CC)(CC)Cc1nc(C)c([C@H](OC(C)(C)C)C(=O)O)c(N2CCC(C)(C)CC2)c1-c1ccc2c(c1)CCN(Cc1ccc(F)cc1C)C2 [Example 125, (S)—N-((5-(tert-Butoxy(carboxy)methyl)-4-(4,4-dimethylpiperidin-1-yl)-3-(2-(4-fluoro-2-methylbenzyl)-1,2,3,4-tetrahydroisoquinolin-6-yl)-6-methylpyridin-2-yl)methyl)-N,N-diethylethanaminium]",> 7.00,0.016
